Columns and labels:
Type in all cases: in vivo, rat
[1] = test system: Sprague-Dawley rats; test: Prevention of diuretic resistance to once daily furosemide by difelikefalin, 24-hour urine (FIG. 14)
Method: (§1) Male Sprague-Dawley rats were placed in individual metabolic cages in a room with 12-hour automatic light on/off control and allowed tap water and rodent chow ad libitum. Over the next two (2) days (control period), rats were administered vehicle (5% NaOH; 1 M PBS, IP) in the morning (9:00 am) and urine was then collected for 24-hours.

[2] = test system: Sprague-Dawley rats placed on a low-salt diet; test: Reversal of furosemide diuretic resistance by difelikefalin in rats on a low sodium diet (FIG. 16)
Method: as §1, with “water. For these studies, rats were placed on a low-salt diet (0.1% NaCl) for one week prior to” for “water”, “throughout” for “rodent chow ad libitum. Over”, “experimental protocol. […] For the first” for “next”, “5-hours.” for “24-hours.”

[3] = test system: conscious Sprague-Dawley rats; test: Acute cardiovascular and renal excretory studies, i.v. bolus (Example 3)
Method: (§2) Animals: Male Sprague-Dawley (SD) rats (Envigo Labs, Indianapolis, IN), 300-350 g, were individually housed under a 12 h light-dark cycle and allowed tap water and standard rodent diet ad libitum. Rats were randomly assigned to experimental groups for all acute and subacute studies. All procedures were approved by the Louisiana State University Health Sciences Center Institutional Animal Care and Use Committee and conducted in accordance with the National Institutes of Health guidelines for the care and use of animals.
Surgical Procedures: Aseptic technique was followed for all surgical procedures. On the morning of the experiment, rats were anesthetized with and maintained under inhaled 2% isoflurane, and polyethylene catheters (PE50; BD Diagnostics, Sparks, MD) were surgically inserted into the left femoral vein and left femoral artery for the infusion of saline and/or drug administration and the recording of arterial blood pressure, respectively. Subsequently, a suprapubic incision was made and a flanged polyethylene catheter (PE240; BD Diagnostics, Sparks, MD) was inserted into the bladder, exteriorized, and sutured to surrounding muscle and skin. Rats were then placed in an elevated restrainer (Krowicki & Kapusta, 2011) to recover from surgery and allow collection of urine. When acute experimental protocols were completed, rats were anesthetized via isoflurane and decapitated.
Acute Cardiovascular and Renal Excretory Studies: Following surgery, rats received an i.v. infusion of isotonic saline at 55 μL min^−1 throughout the duration of the experiment and were allowed 4-6 hours to recover from anesthesia. Arterial catheters were connected to a pressure transducer (MLT0670, ADInstruments, Sydney, Australia), which was connected to Powerlab 8/30 (ADInstruments) for recording of pulsatile and mean arterial blood pressure (MAP) and heart rate (HR). Blood pressure and HR were visualized using LabChart software (v8.1.5; ADInstruments). […] Following this control period, drug or vehicle (isotonic saline) was injected into the femoral vein catheter at a volume of 2 cc kg^−1, and urines were collected in 10 minute periods for a span of 90 minutes. […] All groups are n=6. Urine volume was measured gravimetrically, urine sodium and potassium concentrations were measured using flame photometry (model 943; Instrumentation Laboratories, Lexington, MA), and urine osmolality was measured using a vapor pressure osmometer (model 5600; WESCOR, Logan, UT).
(§3) Experimental Design and Analysis: All results are expressed as mean±SEM. […] Means between groups for total urine output, Na^+ concentration, K^+ concentration, and urine osmolality were compared using a Student's t-test. Statistical significance was characterized as P<0.05. Statistics were carried out using Prism 7.05 software (GraphPad Software, Inc., San Diego, CA) and IBM SPSS Statistics (IBM, Armonk, NY).

[4] = test system: conscious Sprague-Dawley rats; test: Metabolic cage renal excretory studies, oral gavage (Example 3); conditions: oral gavage, mean±SEM
Method: as §2
Metabolic Cage Renal Excretory Studies: Rats were placed in metabolic cages (model 18cv, Fenco, Cataumet, MA) for 2 hours to allow for acclimation and voiding of residual urine. Following the acclimation period, rats were volume loaded with 20 cc kg^−1 drug or vehicle (isotonic saline) via oral gavage. Urines were collected each hour over a 5-hour period. Following completion of the study rats were returned to their home cages. […] These points are marked on the figures with number of measurements in parentheses.
as §3

[5] = test system: Sprague-Dawley rats; test: Prevention of diuretic resistance to twice daily furosemide by nalfurafine, 5-hour urine (FIG. 15)
Method: (§4) Male Sprague-Dawley rats were placed in individual metabolic cages in a room with 12-hour automatic light on/off control and allowed tap water and rodent chow ad libitum. Over the next two (2) days (control period), rats were administered vehicle (5% NaOH; 1 M PBS, IP) in the morning (9:00 am) and afternoon (2:00 pm) of each day, with urine collected for 5-hours starting immediately after the first injection. […] This was repeated for 4 consecutive days (experimental period).

[6] = test system: Sprague-Dawley rats; test: Reversal of oral furosemide diuretic resistance by oral nalfurafine (FIG. 17)
Method: as §4, with “PBS) orally (gavage)” for “PBS, IP)”, “and” for “of each day, with”, “urine was” for “urine”, “5-hours” for “5-hours starting immediately”, “oral treatment.” for “injection.”, “8” for “4”

[7] = test system: conscious Sprague-Dawley rats; test: Acute cardiovascular and renal excretory studies with ICV or IV norBNI pretreatment (Example 4); conditions: for Urine osmolality / Urine potassium concentration [K+] / Urine sodium concentration [Na+]: total 90-min urine
Method: Male Sprague-Dawley rats (Envigo Labs, Indianapolis, IN) were individually housed, allowed tap water and standard rodent diet ad libitum, and kept under a 12-hour light-dark cycle. Rats used in these experiments weighed between 300 and 350 grams and were randomly assigned to experimental groups. All procedures were conducted in accordance with the National Institutes of Health guidelines for the care and use of animals and approved by the Louisiana State University Health Sciences Center Institutional Animal Care and Use Committee.
Aseptic technique was adhered to for all surgeries and detailed surgical methods were followed as previously described.^14 Briefly, 3-5 days before experimentation, rats requiring central ventricle access for administration of drug/vehicle into the brain were anesthetized with ketamine and xylazine and a stainless-steel cannula was stereotaxically implanted into the right lateral cerebral ventricle.^14
On the morning of the experiment, rats were anesthetized and maintained with inhaled 2% isoflurane, and polyethylene catheters were surgically placed into the left femoral artery, left femoral vein, and urinary bladder.^15.16 Following surgery, rats were placed in an elevated restrainer for recovery and collection of urine from an indwelling bladder catheter.^15 After completion of experimental protocols, rats were anesthetized with isoflurane and decapitated.
During stabilization of cardiovascular and renal excretory parameters, rats received an isotonic saline infusion (55 μl/min), which lasted throughout the duration of the experiment. To record mean arterial pressure (MAP) and heart rate (HR), arterial catheters were connected to a pressure transducer (MLT0670, ADInstruments, Sydney, Australia), which was connected to Powerlab 8/30 (ADInstruments) and visualized using LabChart software (v8.1.5; ADInstruments). After one hour of recovery from surgery, rats were pretreated with the KOR antagonist norBNI or isotonic saline vehicle through either an intracerebroventricular (ICV) catheter or intravenous (IV) catheter. […] Next, drug or vehicle (isotonic saline) was injected into the femoral vein and urine samples were collected every 10 minutes during a 90-minute experimental period. The following drug concentrations were used: nalfurafine 5 μg/kg, difelikefalin 10 μg/kg, norBNI 30 mg/kg (IV), norBNI 1 μg/5 μL (ICV). All groups are n=6. Urine sodium and potassium were measured using a flame photometer (model 943; Instrumentation Laboratories, Lexington, MA). Urine volume was measured gravimetrically, and urine osmolality was measured using a vapor pressure osmometer (model 5600; WESCOR, Logan, UT).
All results are expressed as mean±SEM. For determining statistically different changes at time points within a treatment group, means were compared to the control value using 2-way ANOVA with repeated measures and a post hoc Dunnett test following confirmation of a significant F value. For statistically different changes at individual time points between treatment groups, mean values were compared using 2-way ANOVA with repeated measures and a post hoc Sidak test following confirmation of a significant/value. For means between groups for total urine output, urine sodium concentration, urine potassium concentration, and urine osmolality, a Student/test was used. Statistical significance was characterized as P<0.05 and statistics were performed on Prism 7.05 software (GraphPad Software, Inc, San Diego, CA).

[8] = i.v. bolus, cumulative 90-min urine, same doses, mean±SEM
[9] = cumulative 5-hour urine, same doses
[10] = ICV norBNI (1 μg/5 μL) pretreatment
[11] = IV norBNI (30 mg/kg) pretreatment
[12] = difelikefalin 10 μg/kg IV, no pretreatment

Q: What does the source list for NS(=O)(=O)c1cc(C(=O)O)c(NCc2ccco2)cc1Cl [furosemide]?
A: Day of peak diuresis ([1]; once daily IP for 10 days): 2 days; 24-hour urine output on day 10 ([1]; once daily IP, furosemide 10 mg/kg alone or with difelikefalin 20 μg/kg, day 10): 5.57 ± 0.63 mL; 24-hour urine output at peak diuresis ([1]; once daily IP, furosemide 10 mg/kg alone or with difelikefalin 20 μg/kg, mean±SEM): 14.98 ± 1.85 mL; 5-hour urine output on day 12 ([2]; furosemide 10 mg/kg IP once daily alone, low sodium diet, day 12): 4.43 ± 0.54 mL; 5-hour urine output at peak diuresis ([2]; furosemide 10 mg/kg IP once daily, low sodium diet, day 1): 9.86 ± 0.76 mL; Day of peak diuresis ([2]; furosemide alone, low sodium diet): 1 days; Duration of the increase in urine flow rate above control ([3]; after i.v. bolus): 30 min; Time of peak diuresis (urine flow rate) ([3]; after i.v. bolus): 10 min; Effect on heart rate (HR) ([3]; i.v. bolus, 90-min protocol): did not produce any change in MAP or HR; Effect on MAP ([3]; i.v. bolus, diuretic alone, 90-min protocol): did not produce any change in MAP or HR; Potassium concentration [K+] in cumulative urine [3, 8]: 14.51±0.63 μeq ml^−1; Sodium concentration [Na+] in cumulative urine [3, 8]: 138±1.58 μeq ml^−1; Urine osmolality [3, 8]: 379.8 ± 15.33 mmol/kg; Total urine output ([3]; i.v. bolus, cumulative urine of 90-min protocol, nalfurafine 5 μg kg−1, furosemide 7.5 mg kg−1, HCTZ 2.5 mg kg−1, amiloride 2 mg kg−1, mean±SEM, n=6): 9.20 ± 0.75 mL; Potassium concentration [K+] in cumulative urine [4, 9]: 23.94±1.02 μeq ml^−1; Sodium concentration [Na+] in cumulative urine [4, 9]: 96.76±2.66 μeq ml^−1; Total urine output ([4]; cumulative urine of 5-hour protocol, nalfurafine 150 μg kg−1, furosemide 50 mg kg−1, HCTZ 5 mg kg−1, amiloride 5 mg kg−1, n=6): 18.28 ± 0.67 mL; Day of peak diuresis ([5]; twice daily IP for 4 days): 1 days; 5-hour urine output on day 4 ([5]; twice daily IP, furosemide 20 mg/kg alone or with nalfurafine 10 μg/kg, day 4): 7.41 ± 1.40 mL; 5-hour urine output at peak diuresis ([5]; twice daily IP, furosemide 20 mg/kg alone or with nalfurafine 10 μg/kg, mean±SEM): 13.99 ± 0.72 mL; 5-hour urine output at peak diuresis ([6]; furosemide (20 mg/kg per method) orally twice per day, day 1): 13.97 ± 0.64 mL; 5-hour urine output on day 6 ([6]; furosemide alone orally twice per day, day 6): 5.61 ± 1.14 mL; Day of peak diuresis ([6]; furosemide alone, oral): 1 days

Q: Which results are given for Difelikefalin?
A: Effect on diuretic resistance to furosemide ([1]; difelikefalin 20 μg/kg IP added to furosemide 10 mg/kg once daily): prevents the diuretic resistance; Effect on established diuretic resistance to furosemide ([2]; difelikefalin 20 μg/kg IP added on days 13-17, low sodium diet): rescues the established diuretic resistance; Effect on HR [7, 10]: No changes in HR; Effect on MAP [7, 10]: no significant change in MAP; Total urine output ([7]; ICV norBNI (1 μg/5 μL) pretreatment, difelikefalin 10 μg/kg or nalfurafine 5 μg/kg IV, 90 min): 5.49 ± 0.75 mL; Urine osmolality [7, 10]: 280 ± 26.99 mmol/kg; Urine potassium concentration [K+] [7, 10]: 13.63±3.05 μeq/mL; Urine sodium concentration [Na+] [7, 10]: 47.92±8.30 μeq/mL; Total urine output ([7]; ICV vehicle (5 μL) pretreatment, difelikefalin 10 μg/kg or nalfurafine 5 μg/kg IV, 90 min): 9.64 ± 0.52 mL; Effect on HR ([7]; ICV vehicle pretreatment): No changes in HR; MAP peak Δ ([7]; ICV vehicle pretreatment, peak at 60 min (difelikefalin), 50 min (nalfurafine)): −4 mmHg; Urine osmolality ([7]; ICV vehicle pretreatment): 170.7 ± 12.04 mmol/kg; Urine potassium concentration [K+] ([7]; ICV vehicle pretreatment): 8.16±1.81 μeq/mL; Urine sodium concentration [Na+] ([7]; ICV vehicle pretreatment): 45.24±6.67 μeq/mL; Effect on HR [7, 11]: slight but statistically significant increases in HR; MAP peak Δ ([7]; IV norBNI (30 mg/kg) pretreatment, 80-minute peak for difelikefalin): −4.5 mmHg; Total urine output ([7]; IV norBNI (30 mg/kg) pretreatment, difelikefalin 10 μg/kg or nalfurafine 5 μg/kg IV, 90 min): 4.44 ± 0.28 mL; Urine osmolality [7, 11]: 515 ± 35.8 mmol/kg; Urine potassium concentration [K+] [7, 11]: 27.78±5.35 μeq/mL; Urine sodium concentration [Na+] [7, 11]: 140.4±10.7 μeq/mL; Total urine output ([7]; IV vehicle (2 cc/kg) pretreatment, difelikefalin 10 μg/kg or nalfurafine 5 μg/kg IV, 90 min): 9.49 ± 0.30 mL; Effect on HR ([7]; IV vehicle pretreatment): slight but statistically significant increases in HR; MAP peak Δ ([7]; IV vehicle pretreatment, peak at 70 min (difelikefalin), 60 min (nalfurafine)): −11 mmHg; Urine osmolality ([7]; IV vehicle pretreatment): 161.2 ± 9.98 mmol/kg; Urine potassium concentration [K+] ([7]; IV vehicle pretreatment): 5.66±1.04 μeq/mL; Urine sodium concentration [Na+] ([7]; IV vehicle pretreatment): 38.93±4.01 μeq/mL; Duration of the increase in urine flow rate [7, 12]: 50 min; Effect on HR [7, 12]: Neither IV saline nor difelikefalin altered HR; Time of peak diuresis [7, 12]: 30 min; Total urine output ([7]; difelikefalin 10 μg/kg IV, no pretreatment (FIG. 9B), 90-minute period, mean±SEM, n=6): 10.62 ± 0.47 mL; Urine osmolality [7, 12]: 169.70 ± 13.89 mmol/kg; Urine potassium concentration [K+] [7, 12]: 5.53±0.63 μeq/mL; Urine sodium concentration [Na+] [7, 12]: 32.22±6.48 μeq/mL

From US20240180895A1, “USE OF KAPPA OPIOID RECEPTOR AGONISTS TO TREAT CARDIOVASCULAR DISEASE” (Board of Supervisors of Louisiana State University and …, priority 2021, published 2024)
